The test has as its system subjects with relapsing remitting multiple sclerosis (RRMS). The experiment in a line: ALLEGRO Phase III trial: disability endpoints (EDSS, MSFC). In kind it is in vivo, human. The conditions noted are these: for Time to confirmed (3 Ms) progression - EDSS, patients progressed: 24 months. An excerpt: Secondary endpoints were disability progression as measured by the EDSS and the Multiple Sclerosis Functional Composite (MSFC). Confirmed disability progression was defined as an increase of ≧1.0 EDSS point from baseline if baseline EDSS was between 0 and 5.0, or an increase of ≧0.5 point if baseline EDSS was ≧5.5. In order to confirm EDSS progression, these increases had to be sustained for at least three months. Additional predefined disability endpoints include the proportion of patients without confirmed disability progression at 24 months; confirmed disability progression (defined as change in EDSS scores ≧1.0 points for baseline EDSS 0 to 5.0 or ≧5.5) sustained for six months; the accumulation of physical disability as measured by mean EDSS and the mean change in EDSS from baseline to last observed value (LOV). For the MSFC, the measure was the total MSFC z score at 24 months (including patients who terminated after 12 months). The 9-hole peg test (9HPT) and the Paced Auditory Serial Addition Test (PASAT) were performed three times at screening to reduce confounding training effects during the trial. • 1. Accumulation of physical disability measured by the time to confirmed progression of EDSS during the study period (A confirmed progression of EDSS is defined as a 1 point increase from baseline on EDSS score if baseline EDSS was between 0 and 5.0, or a 0.5 point increase if the baseline EDSS was 5.5, confirmed 3 months later. Progression cannot be confirmed during a relapse). • 2. Disability, as assessed by the MSFC score at the end of the treatment period (month 24/30). • 3. The cumulative number of new T2 lesions on scans taken on months 12 and 24 (and 30 in the case of the 6 months extended study). • 4. The cumulative number of enhancing lesions on T1-weighted images taken on months 12 and 24 (and 30 in case of extending the study for 6 months.) Safety and Tolerability Outcome Measures • 1. Adverse events. • 2. Vital signs. • 3. Weight. • 4. Physical examination. • 5. Electrocardiogram (ECG) findings. • 6. Clinical laboratory parameters. • 7. Proportion of subjects (%) who prematurely discontinued from the study, reason of discontinuation and the time to withdrawal. • 8. Proportion of subjects (%) who prematurely discontinued form the study due to AEs and the time to withdrawal. […] To control against type-I error, the secondary endpoints were analyzed only after a significant effect was found for the primary endpoint. […] The MSFC at month 24 was analyzed using a baseline-adjusted ANCOVA (SAS@PROC GLM) with baseline MSFC as 1 degree of freedom covariate and baseline EDSS score, log of the 2-year prior relapse rate +1 and country or geographical region as additional covariates. […]

This note sets out measurements from patent US9662322B2 (TEVA PHARMACEUTICAL INDUSTRIES, LTD., priority 2014, dated 2017).

As to `CCN(C(=O)c1c(O)c2c(Cl)cccc2n(C)c1=O)c1ccccc1` [Laquinimod, laquinimod], the “Time to confirmed (3 Ms) progression - EDSS, patients progressed” value is 9.8% progressed. Besides, the “Time to confirmed (3 Ms) progression - EDSS, patients progressed” value (listed as laquinimod) is reported as 9.8 % progressed. The “EDSS score at LOV, median” value (last observed value) worked out at 2.5. Further, the “MSFC total z scores at 24 months, Effect: reduction of risk to progress” value (vs placebo) worked out at 34% reduction of.
